Where two headings read alike, the source gives them in different places.
Legend:
[1] = system: cingulate and retrosplenial cortices; conditions: mice and rats, cited from earlier work
[2] = Anesthetic-sparing effect of perzinfotel with isoflurane (summary statements); type: in vivo, dogs; conditions: in combination with anesthetic (isoflurane); doses without reduced cardiopulmonary function
[3] = system: rats trained to distinguish between PCP and saline; conditions: cited from earlier work
[4] = doses needed to relieve hyperalgesia in preclinical pain models; cited from earlier work
[5] = doses typically used clinically; cited from earlier work

Structure (SMILES): O=C(O)[C@H]1C[C@@H](CP(=O)(O)O)CCN1 (relative stereo) [CGS-19755, cis-4-phosphonomethyl-2-piperidine carboxylic acid]
- vacuoles in some layers of the cingulate and retrosplenial cortices ([1]; behaviorally effective doses): transient, reversible induction of vacuoles
- effectiveness:vacuolization ratio [1]: 1

Structure (SMILES): O=c1c2c(c1=O)N(CCP(=O)(O)O)CCCN2 [Perzinfotel, [2-(8,9-dioxo-2,6-diazabicyclo[5.2.0]non-1-(7)-en-2-yl)ethyl]phosphonic acid]
- anesthetic-sparing effects [2]: up to 60%
- substitution for PCP (discriminative stimulus effects) [3]: did not substitute
- ataxia or sedation [4]: did not produce ataxia or sedation

Structure (SMILES): C[C@]12N[C@H](Cc3ccccc31)c1ccccc12 [dizocilpine]
- substitution for PCP (discriminative stimulus effects) [3]: substitute

Structure (SMILES): CNC1(c2ccccc2Cl)CCCCC1=O (centres unmarked) [ketamine]
- anesthetic-sparing effects [5]: 10-20%

Structure (SMILES): CC12CC3CC(C)(C1)CC(N)(C3)C2 [memantine]
- substitution for PCP (discriminative stimulus effects) [3]: substitute
